Laboratory results taken from patent publication US9211310B2, “Use of a Chinese medicine composition in preparing medicaments for treating secondary prevention of myocardial infarction” (TASLY PHARMACEUTICAL GROUP CO., LTD, priority 2010, dated 2015).

Tested on: patients after acute myocardial infarction
Assay: TCM symptom score, total and single (chest pain, chest tightness, short breath, fatigue, palpitation, spontaneous perspiration, pale complexion), same clinical trial
Assay type: in vivo, human
Design: total score of TCM symptom, Mean / total score of TCM symptom, Min / total score of TCM symptom, Max / total score of TCM symptom, Md / change of total score of TCM symptom, Mean / change of total score of TCM symptom, Max / change of total score of TCM symptom, Md: scale not given here
Text: 3508 patients who were in accordance with the diagnostic standards of AMI for 28 days to 2 years and differentiated as Qi deficiency and blood stagnation syndrome by TCM were studied. 0.5 g Chinese medicine composition prepared by the method of EXAMPLE 1 (Coded as QSYQ) was administrated half an hour after meal, 3 times per day.
They included the overall survival time, angina pectoris score, TCM symptom score and life quality score, where angina pectoris score, TCM symptom score and life quality score were evaluated at randomization, in 1st, 3rd, 6th, 9th, 12th month after treatment and 18th month after follow-up.
The analysis method referred to the angina pectoris score.

CC(=O)Oc1ccccc1C(=O)O [Control group, aspirine]
change of pale complexion −1, number of patients (FAS, Follow-up-baseline): 39
change of pale complexion −1, percent of patients (FAS, Follow-up-baseline): (2.75%)
change of palpitation 0, number of patients (FAS, Follow-up-baseline): 690
change of palpitation 0, percent of patients (FAS, Follow-up-baseline): (48.46%)
change of palpitation 1, number of patients (FAS, Follow-up-baseline): 528
change of palpitation 1, percent of patients (FAS, Follow-up-baseline): (37.08%)
change of palpitation 2, number of patients (FAS, Follow-up-baseline): 97
change of palpitation 2, percent of patients (FAS, Follow-up-baseline): (6.81%)
change of palpitation 3, number of patients (FAS, Follow-up-baseline): 15
change of palpitation 3, percent of patients (FAS, Follow-up-baseline): (1.05%)
change of palpitation −1, number of patients (FAS, Follow-up-baseline): 90
change of palpitation −1, percent of patients (FAS, Follow-up-baseline): (6.32%)
change of palpitation −2, number of patients (FAS, Follow-up-baseline): 3
change of palpitation −2, percent of patients (FAS, Follow-up-baseline): (0.21%)
change of palpitation −3, number of patients (FAS, Follow-up-baseline): 1
change of palpitation −3, percent of patients (FAS, Follow-up-baseline): (0.07%)
change of short breath 0, % of patients (FAS, Follow-up-baseline): (52.21%)
change of short breath 0, number of patients (FAS, Follow-up-baseline): 744
change of short breath 2, % of patients (FAS, Follow-up-baseline): (36.42%)
change of short breath 2, number of patients (FAS, Follow-up-baseline): 519
change of short breath 4, % of patients (FAS, Follow-up-baseline): (5.47%)
change of short breath 4, number of patients (FAS, Follow-up-baseline): 78
change of short breath 6, % of patients (FAS, Follow-up-baseline): (0.77%)
change of short breath 6, number of patients (FAS, Follow-up-baseline): 11
change of short breath −2, % of patients (FAS, Follow-up-baseline): (4.98%)
change of short breath −2, number of patients (FAS, Follow-up-baseline): 71
change of short breath −4, % of patients (FAS, Follow-up-baseline): (0.00%)
change of short breath −4, number of patients (FAS, Follow-up-baseline): 0
change of short breath −6, % of patients (FAS, Follow-up-baseline): (0.14%)
change of short breath −6, number of patients (FAS, Follow-up-baseline): 2
change of spontaneous perspiration 0, number of patients (FAS, Follow-up-baseline): 656
change of spontaneous perspiration 0, percent of patients (FAS, Follow-up-baseline): (46.07%)
change of spontaneous perspiration 1, number of patients (FAS, Follow-up-baseline): 466
change of spontaneous perspiration 1, percent of patients (FAS, Follow-up-baseline): (32.72%)
change of spontaneous perspiration 2, number of patients (FAS, Follow-up-baseline): 141
change of spontaneous perspiration 2, percent of patients (FAS, Follow-up-baseline): (9.90%)
change of spontaneous perspiration 3, number of patients (FAS, Follow-up-baseline): 32
change of spontaneous perspiration 3, percent of patients (FAS, Follow-up-baseline): (2.25%)
change of spontaneous perspiration −1, percent of patients (FAS, Follow-up-baseline): (8.36%)
change of spontaneous perspiration −2, number of patients (FAS, Follow-up-baseline): 8
change of spontaneous perspiration −2, percent of patients (FAS, Follow-up-baseline): (0.56%)
change of spontaneous perspiration −3, number of patients (FAS, Follow-up-baseline): 2
change of spontaneous perspiration −3, percent of patients (FAS, Follow-up-baseline): (0.14%)
change of total score of TCM symptom, Max (FAS, Follow-up-baseline): 27.00
change of total score of TCM symptom, Md (FAS, Follow-up-baseline): −5.00
change of total score of TCM symptom, Mean (FAS, Follow-up-baseline): −6.18
change of total score of TCM symptom, Min (FAS, Follow-up-baseline): −29.00
change of chest pain score 0, number of patients (Follow-up-baseline, FAS): 769
change of chest pain score 0, percent of patients (Follow-up-baseline, FAS): (54.08%)
change of chest pain score 3, number of patients (Follow-up-baseline, FAS): 426
change of chest pain score 3, percent of patients (Follow-up-baseline, FAS): (29.96%)
change of chest pain score 6, number of patients (Follow-up-baseline, FAS): 158
change of chest pain score 6, percent of patients (Follow-up-baseline, FAS): (11.11%)
change of chest pain score 9, number of patients (Follow-up-baseline, FAS): 9
change of chest pain score 9, percent of patients (Follow-up-baseline, FAS): (0.63%)
change of chest pain score −2, number of patients (Follow-up-baseline, FAS): 1
change of chest pain score −2, percent of patients (Follow-up-baseline, FAS): (0.07%)
change of chest pain score −3, number of patients (Follow-up-baseline, FAS): 47
change of chest pain score −3, percent of patients (Follow-up-baseline, FAS): (3.31%)
change of chest pain score −6, number of patients (Follow-up-baseline, FAS): 11
change of chest pain score −6, percent of patients (Follow-up-baseline, FAS): (0.77%)
change of chest pain score −9, number of patients (Follow-up-baseline, FAS): 1
change of chest pain score −9, percent of patients (Follow-up-baseline, FAS): (0.07%)
change of chest tightness score 0, number of patients (Follow-up-baseline, FAS): 728
change of chest tightness score 0, percent of patients (Follow-up-baseline, FAS): (51.09%)
change of chest tightness score 1, number of patients (Follow-up-baseline, FAS): 1
change of chest tightness score 1, percent of patients (Follow-up-baseline, FAS): (0.07%)
change of chest tightness score 3, number of patients (Follow-up-baseline, FAS): 544
change of chest tightness score 3, percent of patients (Follow-up-baseline, FAS): (38.18%)
change of chest tightness score 6, number of patients (Follow-up-baseline, FAS): 87
change of chest tightness score 6, percent of patients (Follow-up-baseline, FAS): (6.11%)
change of chest tightness score 9, number of patients (Follow-up-baseline, FAS): 5
change of chest tightness score 9, percent of patients (Follow-up-baseline, FAS): (0.35%)
change of chest tightness score −3, number of patients (Follow-up-baseline, FAS): 55
change of chest tightness score −3, percent of patients (Follow-up-baseline, FAS): (3.86%)
change of chest tightness score −6, number of patients (Follow-up-baseline, FAS): 4
change of chest tightness score −6, percent of patients (Follow-up-baseline, FAS): (0.28%)
change of chest tightness score −9, number of patients (Follow-up-baseline, FAS): 1
change of chest tightness score −9, percent of patients (Follow-up-baseline, FAS): (0.07%)
change of chest pain score 0, number of patients (Follow-up-baseline, PP): 750
change of chest pain score 0, percent of patients (Follow-up-baseline, PP): (54.03%)
change of chest pain score 3, number of patients (Follow-up-baseline, PP): 417
change of chest pain score 3, percent of patients (Follow-up-baseline, PP): (30.04%)
change of chest pain score 6, number of patients (Follow-up-baseline, PP): 155
change of chest pain score 6, percent of patients (Follow-up-baseline, PP): (11.17%)
change of chest pain score 9, number of patients (Follow-up-baseline, PP): 8
change of chest pain score 9, percent of patients (Follow-up-baseline, PP): (0.58%)
change of chest pain score −2, number of patients (Follow-up-baseline, PP): 1
change of chest pain score −2, percent of patients (Follow-up-baseline, PP): (0.07%)
change of chest pain score −3, number of patients (Follow-up-baseline, PP): 47
change of chest pain score −3, percent of patients (Follow-up-baseline, PP): (3.39%)
change of chest pain score −6, number of patients (Follow-up-baseline, PP): 9
change of chest pain score −6, percent of patients (Follow-up-baseline, PP): (0.65%)
change of chest pain score −9, number of patients (Follow-up-baseline, PP): 1
change of chest pain score −9, percent of patients (Follow-up-baseline, PP): (0.07%)
change of chest tightness score 0, number of patients (Follow-up-baseline, PP): 712
change of chest tightness score 0, percent of patients (Follow-up-baseline, PP): (51.19%)
change of chest tightness score 1, number of patients (Follow-up-baseline, PP): 1
change of chest tightness score 1, percent of patients (Follow-up-baseline, PP): (0.07%)
change of chest tightness score 3, number of patients (Follow-up-baseline, PP): 528
change of chest tightness score 3, percent of patients (Follow-up-baseline, PP): (37.96%)
change of chest tightness score 6, number of patients (Follow-up-baseline, PP): 86
change of chest tightness score 6, percent of patients (Follow-up-baseline, PP): (6.18%)
change of chest tightness score 9, number of patients (Follow-up-baseline, PP): 5
change of chest tightness score 9, percent of patients (Follow-up-baseline, PP): (0.36%)
change of chest tightness score −3, number of patients (Follow-up-baseline, PP): 54
change of chest tightness score −3, percent of patients (Follow-up-baseline, PP): (3.88%)
change of chest tightness score −6, number of patients (Follow-up-baseline, PP): 4
change of chest tightness score −6, percent of patients (Follow-up-baseline, PP): (0.29%)
change of chest tightness score −9, number of patients (Follow-up-baseline, PP): 1
change of chest tightness score −9, percent of patients (Follow-up-baseline, PP): (0.07%)
chest pain score 0, number of patients (Follow-up, FAS): 754
chest pain score 0, percent of patients (Follow-up, FAS): (52.84%)
chest pain score 2, number of patients (Follow-up, FAS): 1
chest pain score 2, percent of patients (Follow-up, FAS): (0.07%)
chest pain score 3, number of patients (Follow-up, FAS): 479
chest pain score 3, percent of patients (Follow-up, FAS): (33.57%)
chest pain score 6, number of patients (Follow-up, FAS): 192
chest pain score 6, percent of patients (Follow-up, FAS): (13.45%)
chest pain score 9, number of patients (Follow-up, FAS): 1
chest pain score 9, percent of patients (Follow-up, FAS): (0.07%)
chest tightness score 0, number of patients (Follow-up, FAS): 754
chest tightness score 0, percent of patients (Follow-up, FAS): (52.84%)
chest tightness score 2, number of patients (Follow-up, FAS): 1
